Measurements reported in ChEMBL document CHEMBL3390830, “Targeting epigenetic modifiers: Inhibitors of histone methyltransferases” (Medchemcomm, 2010).
Values belong to the compound of their own block, whether it stands above or below them.

How the values were obtained:
[1] = target: T1, Histone-lysine N-methyltransferase EHMT2 (Homo sapiens, UniProt Q96KQ7); experiment: Inhibition of G9a (685 to 1000) (unknown origin) expressed in Escherichia coli BL21 assessed as reduction of H3K9me2 level by DELFIA assay
T1 sequence (Q96KQ7 whole entry): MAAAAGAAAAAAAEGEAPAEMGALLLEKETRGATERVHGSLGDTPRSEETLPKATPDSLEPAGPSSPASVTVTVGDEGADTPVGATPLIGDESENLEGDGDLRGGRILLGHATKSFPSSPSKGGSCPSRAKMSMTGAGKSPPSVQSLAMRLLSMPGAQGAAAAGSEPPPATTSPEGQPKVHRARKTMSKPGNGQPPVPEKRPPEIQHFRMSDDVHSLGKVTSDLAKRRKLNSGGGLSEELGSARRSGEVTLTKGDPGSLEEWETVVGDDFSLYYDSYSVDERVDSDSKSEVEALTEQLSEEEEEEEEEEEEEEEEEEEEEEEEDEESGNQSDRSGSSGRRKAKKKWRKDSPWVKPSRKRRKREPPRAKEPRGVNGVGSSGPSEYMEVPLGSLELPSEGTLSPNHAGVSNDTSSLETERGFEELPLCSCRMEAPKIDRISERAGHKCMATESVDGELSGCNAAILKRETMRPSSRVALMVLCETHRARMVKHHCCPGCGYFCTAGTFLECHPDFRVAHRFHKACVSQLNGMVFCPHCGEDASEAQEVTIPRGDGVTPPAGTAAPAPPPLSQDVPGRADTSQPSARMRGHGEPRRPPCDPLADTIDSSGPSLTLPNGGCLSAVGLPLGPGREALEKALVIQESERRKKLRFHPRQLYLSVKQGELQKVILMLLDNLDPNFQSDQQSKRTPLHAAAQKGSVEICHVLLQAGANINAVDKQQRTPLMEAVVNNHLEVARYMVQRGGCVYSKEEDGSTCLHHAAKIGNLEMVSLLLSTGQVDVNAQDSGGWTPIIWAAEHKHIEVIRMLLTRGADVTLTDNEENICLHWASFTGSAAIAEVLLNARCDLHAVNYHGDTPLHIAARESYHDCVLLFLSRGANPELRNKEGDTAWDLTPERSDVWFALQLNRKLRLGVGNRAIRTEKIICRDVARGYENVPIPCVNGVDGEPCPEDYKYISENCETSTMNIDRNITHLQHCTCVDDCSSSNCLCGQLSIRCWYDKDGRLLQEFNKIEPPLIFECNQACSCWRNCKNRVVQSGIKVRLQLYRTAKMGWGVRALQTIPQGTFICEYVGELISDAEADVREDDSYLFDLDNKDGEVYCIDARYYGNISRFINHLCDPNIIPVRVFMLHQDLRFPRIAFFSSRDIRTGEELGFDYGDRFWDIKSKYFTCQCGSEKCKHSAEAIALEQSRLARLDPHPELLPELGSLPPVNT

[2] = target: T2, Protein arginine N-methyltransferase 1 (Homo sapiens, UniProt Q99873); experiment: Inhibition of GST-fused PRMT1 (unknown origin) expressed in Escherichia coli BL21 assessed as reduction of asymmetric H4R3me2 level by DELFIA assay
[3] = target: T3, NAD-dependent protein deacetylase sirtuin-1 (Homo sapiens, UniProt Q96EB6); experiment: Inhibition of recombinant human N-terminal GST-tagged full length SIRT1 expressed in Escherichia coli BL21(DE3) using ZMAL as substrate after 4 hrs by homogeneous fluorescent deacetylase assay
T3 sequence (Q96EB6 whole entry): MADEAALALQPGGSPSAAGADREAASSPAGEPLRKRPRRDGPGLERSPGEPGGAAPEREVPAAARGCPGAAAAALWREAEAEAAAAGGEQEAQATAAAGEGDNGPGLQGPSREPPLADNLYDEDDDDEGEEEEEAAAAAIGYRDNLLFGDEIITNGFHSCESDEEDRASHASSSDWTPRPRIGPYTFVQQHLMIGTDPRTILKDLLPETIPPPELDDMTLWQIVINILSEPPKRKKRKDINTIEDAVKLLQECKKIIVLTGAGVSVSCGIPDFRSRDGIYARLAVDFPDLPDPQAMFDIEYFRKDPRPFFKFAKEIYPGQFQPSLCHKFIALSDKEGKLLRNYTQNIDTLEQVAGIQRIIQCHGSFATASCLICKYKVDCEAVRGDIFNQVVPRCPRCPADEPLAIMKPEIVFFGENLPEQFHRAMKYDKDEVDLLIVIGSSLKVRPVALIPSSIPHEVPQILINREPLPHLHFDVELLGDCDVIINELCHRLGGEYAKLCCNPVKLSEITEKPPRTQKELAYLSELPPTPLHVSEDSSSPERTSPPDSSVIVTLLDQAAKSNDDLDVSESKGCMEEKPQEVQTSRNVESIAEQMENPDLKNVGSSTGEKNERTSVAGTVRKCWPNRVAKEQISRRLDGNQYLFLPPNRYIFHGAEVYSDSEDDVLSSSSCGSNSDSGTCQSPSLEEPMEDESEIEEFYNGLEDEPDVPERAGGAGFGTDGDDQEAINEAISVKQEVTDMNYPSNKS

[4] = target: T2, Protein arginine N-methyltransferase 1; experiment: Inhibition of recombinant human GST-tagged PRMT1 assessed as inhibition of histone methylation
[5] = target: Histone-lysine N-methyltransferase Su(var)3-9 (Drosophila melanogaster, UniProt P45975); experiment: Inhibition of Drosophila melanogaster Su(var)3-9
[6] = target: T1, Histone-lysine N-methyltransferase EHMT2; experiment: Inhibition of G9a (unknown origin)
[7] = target: T2, Protein arginine N-methyltransferase 1; experiment: Inhibition of human PRMT1 using GST-tagged Npl3 as substrate preincubated for 15 mins followed by enzyme addition measured after 1 hr by colorimetric assay

T2 sequence (Q99873 whole entry, the tested form may be a part): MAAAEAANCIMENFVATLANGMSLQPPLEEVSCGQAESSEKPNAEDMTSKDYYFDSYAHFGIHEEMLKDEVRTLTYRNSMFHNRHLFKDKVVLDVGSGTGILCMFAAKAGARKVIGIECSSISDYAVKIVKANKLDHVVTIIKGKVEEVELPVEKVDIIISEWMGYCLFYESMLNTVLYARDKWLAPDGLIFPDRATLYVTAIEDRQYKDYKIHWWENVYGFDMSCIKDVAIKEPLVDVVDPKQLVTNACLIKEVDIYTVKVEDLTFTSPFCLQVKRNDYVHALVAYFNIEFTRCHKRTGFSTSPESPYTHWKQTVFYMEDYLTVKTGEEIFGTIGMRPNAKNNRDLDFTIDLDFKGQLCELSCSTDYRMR
Sequence of Histone-lysine N-methyltransferase Su(var)3-9 (P45975 whole entry): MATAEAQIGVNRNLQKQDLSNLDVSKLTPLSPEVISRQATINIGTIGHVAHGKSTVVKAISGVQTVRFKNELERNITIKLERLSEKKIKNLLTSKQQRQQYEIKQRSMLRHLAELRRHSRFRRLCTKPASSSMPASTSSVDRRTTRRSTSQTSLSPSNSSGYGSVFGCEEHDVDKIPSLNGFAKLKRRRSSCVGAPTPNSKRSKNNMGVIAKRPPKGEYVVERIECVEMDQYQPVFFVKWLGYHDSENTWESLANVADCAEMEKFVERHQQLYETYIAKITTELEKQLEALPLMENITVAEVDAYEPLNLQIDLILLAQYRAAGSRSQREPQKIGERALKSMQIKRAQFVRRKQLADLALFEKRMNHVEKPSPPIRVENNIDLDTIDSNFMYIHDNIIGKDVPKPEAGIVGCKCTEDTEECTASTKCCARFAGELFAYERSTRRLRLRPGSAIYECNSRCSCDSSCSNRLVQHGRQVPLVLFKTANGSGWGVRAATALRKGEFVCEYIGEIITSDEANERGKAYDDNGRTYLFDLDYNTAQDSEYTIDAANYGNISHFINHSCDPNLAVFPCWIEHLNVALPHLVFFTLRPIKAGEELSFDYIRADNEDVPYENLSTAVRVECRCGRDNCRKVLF

- IC50 [1]: 5 µM
- IC50 [2]: 6 µM
SMILES: COc1ccc(C(=O)Oc2ccc(CCn3c(NC(=O)c4ccc(C(F)(F)F)cc4)nc4cc(C(=O)O)ccc43)cc2)cc1

- IC50 [4]: 4 µM
SMILES: COc1ccc(/N=N/c2c(S(=O)(=O)O)cc3cc(Cc4nc(Cl)nc(Cl)n4)ccc3c2O)cc1

- IC50 [7]: 1 µM
SMILES: O=C1OC2(c3ccccc31)c1cc(Br)c(O)c(Br)c1Oc1c2cc(Br)c(O)c1Br [EOSIN]

Continued, compound first:

SMILES: O=C(Nc1ccc2c(O)cc(S(=O)(=O)O)cc2c1)Nc1ccc2c(O)cc(S(=O)(=O)O)cc2c1
- IC50 [3]: 32 µM

SMILES: CN1C(=O)[C@@]23C[C@]4([C@]56C[C@@]78SS[C@@](CO)(C(=O)N7[C@H]5Nc5ccccc56)N(C)C8=O)c5ccccc5N[C@@H]4N2C(=O)[C@]1(CO)SS3 [CHAETOCIN]
- IC50 [5]: 0.8 µM
- IC50 [6]: 2.5 µM
